In paper PMC9027509, “Modulation of Paracellular-like Drug Transport across an Artificial Biomimetic Barrier by Osmotic Stress-Induced Liposome Shrinking” (Pharmaceutics, 2022):

Experiments:
Format in all cases: in vitro ADME
[1] = Permeation across PermeaPad barrier, reversed Franz cell setup, after NaCl pretreatment; conditions: for Increase of apparent permeability across the PermeaPad® barrier upon hypo-osmotic pretreatment: hypo-osmotic pretreatment (soaking in hypotonic medium); for Papp: permeation in 300 mOsm PBS pH 6.5, 37 °C, mean ± SD, read-out: Permeability across PermeaPad®; for Increase of permeability in PBS across PermeaPad®: pretreated with NaCl solutions of 50, 150, or 900 mOsm/kg compared to 300 mOsm/kg; for Change of permeability across PermeaPad® after hyper-osmotic pretreatment (in words): pretreatment with 900 mOsm/kg NaCl solution versus 300 mOsm, p < 0.05; for Papp, mean: supplement raw data, mean of replicates A-C
Method: (§1) During these studies, phosphate-buffered saline (PBS) was used as the acceptor medium and for the preparation of donor media for permeation experiments. The liposomes were allowed to form within the barrier by soaking the dry sandwich barrier (PermeaPad) in hypo-, iso-, or hyper-osmotic media and compared to the PBS by using NaCl solutions of different osmolalities. PBS was prepared by dissolving 35 mM sodium phosphate dibasic dihydrate and 75 mM sodium phosphate monobasic monohydrate in water. Then, the pH was adjusted to 6.5 by adding 0.1 M HCl or 0.1 M NaOH. Finally, the osmolality was measured on a semi-micro osmometer K-7400 from KNAUER Wissenschaftliche Geräte GmbH (Berlin, Germany), and NaCl was added to obtain an osmolality of 300 mOsm. Solutions of NaCl were prepared by dissolving NaCl in purified water to obtain osmolalities of 50, 150, 250, 300, 350, 450 and 900 mOsm.
(§2) The acyclovir solution was prepared by dissolving 1 mg/mL acyclovir in PBS. […] The stock of calcein was prepared by dissolving 2.8 g calcein in 30 mL water before adjusting the pH to 6.5 with 4 M NaOH (~20 mL), and the osmolality of the stock was adjusted to 300 mOsm with NaCl. […] The saturated celecoxib suspensions were prepared by suspending 1 mg/mL of celecoxib in PBS. The suspension was then sonicated for 10 min and left in the shaking water bath at 50 rpm and 37 °C for 40 h before starting the permeation experiments.
(§3) For the permeation experiments, we used the reversed Franz cell setup from Permegear (Hellertown, PA, USA) with the donor in the bottom chamber (8 mL) and the acceptor in the top chamber (2 mL). The two compartments were either separated by PermeaPad® or a sandwich consisting of two pieces of the support sheet representing the support layer of PermeaPad® (with no lipids). The barriers were kindly donated by InnoMe GmbH (Espelkamp, Germany). A cylindrical stir bar (2 mm diameter × 8 mm length) was spinning at 500 rpm at the bottom of the donor compartment. The temperature of the Franz cells was kept constant at 37 °C by a circulating water system.
(§4) Prior to the permeation experiments, the barrier was exposed to NaCl solutions ranging from 50 to 900 mOsm for 30 min by simply adding 2 mL of the NaCl solution to the top compartment. The NaCl solutions were removed from the top compartment right before initiating the permeation experiments.
(§5) For the permeation experiments, the system was kept assembled after the NaCl pretreatment, and the bottom compartment was filled with 8 mL of donor solution/suspension, followed by the addition of 2 mL PBS to the top compartment. […] All samples were replaced by the same volume of PBS to keep the acceptor volume constant and to maintain sink conditions. Before and after experiments, donor samples were withdrawn to keep track of the mass balance (see the Supplementary Materials).
(§6) The column temperature was 40 °C during measurement. […] All quantification was with a freshly prepared calibration curve in the relevant range.
(§7) The flux was determined by plotting the cumulative amount of a drug compound permeation (dQ) normalized to the permeation area (A) (1 cm^2) against time (dt), with the flux (J) equal to the slope. (1) J=dQ/A·dt
(§8) We assumed that the change in the donor concentration over the experiments was negligible. The apparent permeability (Papp) was equal to the flux normalized to the starting donor concentration (C0). (2) Papp=J/C0

[2] = Permeability across the lipid layer of PermeaPad calculated from Papp and Psup (Equation 3); conditions: for Permeation across lipid layer, fold higher with 50 mOsm/kg pretreatment: 50 mOsm/kg versus 300 mOsm/kg NaCl pretreatment; for Papp: not told, calculated 1/Papp=1/Plip+1/Psup
Excerpt: The permeation across the lipid layer (Plip) has been calculated using Equation (3) (Di Cagno et al., 2015). The inverse of each permeability constant represents the resistance. The sum of the resistance of the lipid layer and the support layer (Psup) composing the PermeaPad® barrier gives the resistance of the whole barrier. (3) 1/Papp=1/Plip+1/Psup

[3] = Permeation across lipid-free support sheets (support layer of PermeaPad), reversed Franz cell setup; conditions: for Papp: 300 mOsm PBS pH 6.5, 37 °C, mean ± SD, read-out: Permeability across support layer; for Papp, mean: supplement raw data, Support sheet, 30 min pretreatment, mean of replicates A-C
Method: as §1, §2, §3, §4, §5, §6, §7, §8

[4] = pH 6.5, barrier pretreated 30 min with 50 mOsm/kg NaCl solution
[5] = pH 6.5, barrier pretreated 30 min with 300 mOsm/kg NaCl solution
[6] = PermeaPad, osmolality 50, 30 min pretreatment
[7] = PermeaPad, osmolality 150, 30 min pretreatment
[8] = PermeaPad, osmolality 300, 30 min pretreatment
[9] = PermeaPad, osmolality 450, 30 min pretreatment
[10] = PermeaPad, osmolality 900, 30 min pretreatment
[11] = pH 6.5, pretreatment with 50 mOsm/kg NaCl solution
[12] = pH 6.5, pretreatment with 300 mOsm/kg NaCl solution
[13] = pH 6.5, pretreated 30 min with 50 mOsm/kg NaCl solution
[14] = pH 6.5, pretreated 30 min with 300 mOsm/kg NaCl solution

SMILES | Increase of apparent permeability across the PermeaPad® barrier upon hypo-osmotic pretreatment [1] | Papp [1, 4] | Papp [1, 5] | Increase of permeability in PBS across PermeaPad® [1] | Change of permeability across PermeaPad® after hyper-osmotic pretreatment (in words) [1] | Papp, mean [1, 6] | Papp, mean [1, 7] | Papp, mean [1, 8] | Papp, mean [1, 9] | Papp, mean [1, 10] | Permeation across lipid layer, fold higher with 50 mOsm/kg pretreatment [2] | Papp [2, 11] | Papp [2, 12] | Papp [3, 13] | Papp [3, 14] | Papp, mean ([3]; osmolality 50) | Papp, mean ([3]; osmolality 300) | also measured
Nc1nc2c(ncn2COCCO)c(=O)[nH]1 [Acyclovir, acyclovir] | ~1.7 fold | 4.07 ± 0.6 ×10⁻⁶ cm/s | 2.52 ± 0.33 ×10⁻⁶ cm/s | 1.5–2 fold | increased significantly | 4.068 10-6 | 3.864 10-6 | 2.527 10-6 | 3.76 10-6 | 4.675 10-6 | 1.7 fold | 4.71 ± 0.78 ×10⁻⁶ cm/s | 2.74 ± 0.38 ×10⁻⁶ cm/s | 32.7 ± 1.87 ×10⁻⁶ cm/s | 33.2 ± 1.79 ×10⁻⁶ cm/s | 32.67 10-6 | 33.19 10-6 | 
O=C(O)CN(CC(=O)O)Cc1cc2c(cc1O)Oc1cc(O)c(CN(CC(=O)O)CC(=O)O)cc1C21OC(=O)c2ccccc21 [Calcein, calcein] | approximately 2.0 fold | 0.61 ± 0.04 ×10⁻⁶ cm/s | 0.35 ± 0.01 ×10⁻⁶ cm/s | 1.5–2 fold | increased significantly | 0.6055 10-6 | 0.6047 10-6 | 0.3505 10-6 | 0.3884 10-6 | 0.5604 10-6 | 2.0 fold | 0.8 ± 0.07 ×10⁻⁶ cm/s | 0.4 ± 0.02 ×10⁻⁶ cm/s | 2.51 ± 0.3 ×10⁻⁶ cm/s | 2.84 ± 0.54 ×10⁻⁶ cm/s | 2.509 10-6 | 2.835 10-6 | Difference in permeation across PermeaPad® between 2 and 30 min pretreatment ([1]; 50 and 300 mOsm/kg NaCl solutions, p > 0.05): no significant differences; Papp, mean ([1]; PermeaPad (2 min pretreatment), osmolality 50): 0.5524 10-6; Papp, mean ([1]; PermeaPad (2 min pretreatment), osmolality 300): 0.3418 10-6; Papp, mean ([1]; PermeaPad, osmolality 250, 30 min pretreatment): 0.3074 10-6; Papp, mean ([1]; PermeaPad, osmolality 350, 30 min pretreatment): 0.3633 10-6
Cc1ccc(-c2cc(C(F)(F)F)nn2-c2ccc(S(N)(=O)=O)cc2)cc1 [Celecoxib, celecoxib] |  | 17.9 ± 7.48 ×10⁻⁶ cm/s | 15.9 ± 4.99 ×10⁻⁶ cm/s |  |  | 17.95 10-6 | 12.5 10-6 | 15.92 10-6 | 16.62 10-6 | 17.85 10-6 |  | 34.2 ± 18.1 ×10⁻⁶ cm/s | 26.2 ± 11.2 ×10⁻⁶ cm/s | 46.3 ± 2.23 ×10⁻⁶ cm/s | 46.2 ± 2.74 ×10⁻⁶ cm/s | 46.3348 10-6 | 46.16 10-6 | Change of permeability across PermeaPad® with different pretreatments (in words) ([1]; NaCl pretreatment solutions from 50 to 900 mOsm/kg compared to 300 mOsm/kg): no significant changes; Change of permeation across PermeaPad® upon hypo-osmotic pretreatment (in words) ([1]; hypo-osmotic pretreatment): remained unchanged
